Data on 12 compounds can be found in patent publication US20250115577A1, “BCL-2 Inhibitors” (Eil Therapeutics, Inc., priority 2021, published 2025).

Series [1] concerns the target BCL-2 (Homo sapiens (Human), UniProt P10415). In words: BCL-2 TR-FRET Assay (primary PPI inhibition). It counts as binding. The conditions noted are these: 60 min incubation, read-out: BCL2 IC50. How it is done: Example A. BCL-2 TR-FRET Assay (BPS Bioscience, #50222)
The following assay concentrations and times were used: 3 ng of BCL-2, 5 μL of 1:100 anti-His Tb-labeled donor, 5 μL of 1:100 Dye-labeled acceptor, 5 µL of 1:40 BCL-2 Peptide Ligand, and 2 μL of 200× test compound, with 60 min incubation time (final concentration of DMSO 0.5%). The results of the assay were read using a plate reader with the following parameters: TR FRET, 340ex/620 and 665em; 60 usec Delay; and 500 usec integration.
(§1) Instrumentation: CLARIOstar Plus (BMG LABTECH); Biomek FX for liquid handling (Beckman Coulter).

Series [2] has as its target BCL-xL (Homo sapiens (Human), UniProt Q07817). In words: BCL-xL TR-FRET Assay (primary PPI inhibition). It counts as binding. Conditions: 60 min incubation, read-out: BCLxL IC50. The procedure: Example B. BCL-xL TR-FRET Assay (BPS Bioscience, #50223)
The following assay concentrations and times were used: 10.5 ng of BCL-xL, 5 μL of 1:120 anti-His Tb-labeled donor, 5 μL of 1:120 Dye-labeled acceptor, 5 μL of 1:96 BCL-xL Peptide Ligand, 2 μL of 200× test compound, with 60 min incubation time (final concentration of DMSO 0.5%). The results of the assay were read using a plate reader with the following parameters: TR FRET, 340ex/620 and 665em; 60 usec Delay; and 500 usec integration.
as §1

In series [3] the test system is RS4-11 cells. In words: Cell viability assay (CellTiter-Glo), RS4-11. Format: cell-based. Conditions: Homo sapiens, RS4-11, 72 h, 3 days of incubation. How it is done: (§2) Example D. Cell Viability Assays (Cell lines HEK293, RS4-11, MOLT-4)
(§3) Cells were seeded at a density of 4000 cells per well in the 384-well clear bottom plate (Greiner Cat #781090) to the 45 μL total volume of either DMEM (PanEco, Cat #C420, for HEK293) or RPMI (PanEco, Cat #C330, for other cell lines) with 10% FBS(HyClone Cat #SV30160.03). Prior to adding compounds, the HEK293 cells were allowed to adhere overnight at 37° C. and 5% CO2. The 500× compounds solutions in DMSO(Sigma Cat #D2650) were dispersed into a 384-well compound plate (Diamond Well Plate, Axigen, Cat #P-384-120 SQ-C—S) including only DMSO control. The 1 μL aliquots of the 500× compounds from the compound plate were added to 49 μL of culture medium in the Dilution plate (Diamond Well Plate, Axigen, Cat #P-384-120 SQ-C—S), mixed and then the 5 μL aliquts of the 10× compound solutions were transferred to cells followed by centrifugation at 100 g for 1 min. Final DMSO concentration was 0.2%. After 3 days of incubation the 10 μL aliquots of CellTiter-Glo (Promega, CAT #G7572) were added to the cells, plate was centrifuged at 100 g for 1 min and the luminescence was measured on the CLARIOstar Plus (BMG LABTECH) instrument.
as §1
For orientation: Cellular ATP, detected with luciferase, serves as a proxy for viable cell number.

Series [4] is described as follows: Cell viability assay (CellTiter-Glo), HEK293. The conditions noted are these: human, HEK293 cells, 3 days of incubation. Format: cell-based. The procedure: as §2, §3, §1
Series [5] deals with MOLT-4 cells. The series can be described thus: Cell viability assay (CellTiter-Glo), MOLT-4. It counts as cell-based. Conditions: Homo sapiens, 72 h, 3 days of incubation. How it is done: as §2, §3, §1
Series [6] concerns caspase-3 and -7 activities in RS4-11 cells. In words: Caspase-3/7 activation (Caspase-Glo 3/7) in RS4-11 cells. It counts as cell-based. Conditions: Homo sapiens, 3.5 h, read-out: Cas-3/7 EC50. How it is done:
Example E. Caspase-3/7 Activation
Assay Principle: The Caspase-Glo 3/7 Assay is homogeneous, luminescent assay that measures caspase-3 and -7 activities. The assay provides a luminogenic caspase-3/7 substrate, which contains the tetrapeptide sequence DEVD, in a reagent optimized for caspase activity.
Assay Procedure: Incubate RS4-11 (ATCC, CRL-1873) cells in the 384-well white plate (Corning, #3570) with varying concentrations of test compounds for 3.5 h in a humidified incubator at 37° C. and 5% CO2 […]. Add 15 μL of the Caspase-Glo (Promega, #8212) reagent to each well and to incubate the plate for 30 min at rt. Read on the CLARIOstar Plus (BMG LABTECH) instrument.
as §1

Molecules are shown by their SMILES. Some results are limits rather than exact numbers.

Chain of BCL-2 (P10415 whole entry): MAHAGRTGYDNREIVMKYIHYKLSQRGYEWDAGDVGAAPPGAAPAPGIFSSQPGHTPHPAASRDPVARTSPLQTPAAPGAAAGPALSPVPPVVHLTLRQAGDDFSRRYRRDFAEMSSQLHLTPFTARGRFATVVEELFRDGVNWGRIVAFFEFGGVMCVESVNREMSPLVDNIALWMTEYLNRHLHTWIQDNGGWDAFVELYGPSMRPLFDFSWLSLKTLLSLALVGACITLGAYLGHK
Chain of BCL-xL (Q07817 whole entry): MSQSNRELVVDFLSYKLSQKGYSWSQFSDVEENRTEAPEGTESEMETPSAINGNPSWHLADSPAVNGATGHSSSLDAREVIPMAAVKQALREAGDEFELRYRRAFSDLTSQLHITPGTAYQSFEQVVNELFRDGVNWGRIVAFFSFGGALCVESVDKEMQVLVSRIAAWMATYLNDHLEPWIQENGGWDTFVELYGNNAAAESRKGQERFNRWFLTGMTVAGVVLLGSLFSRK

As for `COc1cccc(CN(C(=O)c2cc(-c3ccc(OC(F)F)cc3C(=O)N3Cc4ccccc4C[C@H]3CN3CCOCC3)n(C)c2C)c2ccc(Cl)cc2)c1C` [Compound 12, N-(4-chlorophenyl)-5-[4-(difluoromethoxy)-2-[(3S)-3-(morpholinomethyl)-3,4-dihydro-1H-isoquinoline-2-carbonyl]phenyl]-N-[(3-methoxy-2-methyl-phenyl)methyl]-1,2-dimethyl-pyrrole-3-carboxamide], the IC50 in series [1] is over 50 nM; in series [2], 2000 to 5000 nM. Moreover, the results for the CC50 in series [3] and in series [5] were over 200 nM and at most 5000 nM, respectively. Also, in series [4], the CC50 at 3 days was over 25000 nM. Further, the EC50 in series [6] is over 500 nM.

For `COc1cccc(CN(C(=O)c2cc(-c3cc(C(F)F)c(Cl)cc3C(=O)N3Cc4ccccc4C[C@H]3CN3CCOCC3)n(C)c2C)c2ccc(C#N)cc2)c1C` [Compound 24, 5-[4-chloro-5-(difluoromethyl)-2-[(3S)-3-(morpholinomethyl)-3,4-dihydro-1H-isoquinoline-2-carbonyl]phenyl]-N-(4-cyanophenyl)-N-[(3-methoxy-2-methyl-phenyl)methyl]-1,2-dimethyl-pyrrole-3-carboxamide], the IC50 in series [1] was over 50 nM; in series [2], 2000 to 5000 nM. Also, the 50% cytotoxic concentration (CC50) is over 200 nM in series [3] and over 10000 nM in series [5]. Besides, the CC50 at 3 days in series [4] was over 25000 nM. Further, in series [6], the EC50 was over 500 nM.

In the case of `COc1cccc(CN(C(=O)c2cc(-c3cc(F)c(OC(F)F)cc3C(=O)N3Cc4ccccc4C[C@H]3CN3CCOCC3)n(C)c2C)c2ccc(Cl)cc2)c1C` [Compound 26, N-(4-chlorophenyl)-5-[4-(difluoromethoxy)-5-fluoro-2-[(3S)-3-(morpholinomethyl)-3,4-dihydro-1H-isoquinoline-2-carbonyl]phenyl]-N-[(3-methoxy-2-methyl-phenyl)methyl]-1,2-dimethyl-pyrrole-3-carboxamide], the figures for the IC50 in series [1] and in series [2] were over 50 nM and 2000 to 5000 nM, respectively. The 50% cytotoxic concentration (CC50) in series [3] was over 200 nM; in series [5] it was at most 5000 nM. Further, the CC50 at 3 days in series [4] is over 25000 nM. The EC50 in series [6] was over 500 nM.

In the case of `COc1cccc(CN(C(=O)c2cc(-c3cc(Cl)ccc3C(=O)N3Cc4ccccc4C[C@H]3CN3CCOCC3)n(C)c2C)c2ccc(C#N)cc2)c1C` [Compound 33, 5-[5-chloro-2-[(3S)-3-(morpholinomethyl)-3,4-dihydro-1H-isoquinoline-2-carbonyl]phenyl]-N-(4-cyanophenyl)-N-[(3-methoxy-2-methyl-phenyl)methyl]-1,2-dimethyl-pyrrole-3-carboxamide], the IC50 in series [1] was over 50 nM; in series [2] it was 2000 to 5000 nM.

With `COc1cccc(CN(C(=O)c2cc(-c3cc(Cl)c(OC(F)F)cc3C(=O)N3Cc4ccccc4C[C@H]3CN3CCOCC3)n(C)c2C)c2ccc(C#N)cc2)c1C` [Compound 40, 5-[5-chloro-4-(difluoromethoxy)-2-[(3S)-3-(morpholinomethyl)-3,4-dihydro-1H-isoquinoline-2-carbonyl]phenyl]-N-(4-cyanophenyl)-N-[(3-methoxy-2-methyl-phenyl)methyl]-1,2-dimethyl-pyrrole-3-carboxamide], the IC50 in series [1] is over 50 nM; in series [2] it was 2000 to 5000 nM.

For `COc1cccc(CN(C(=O)c2cc(-c3cc(F)c(OC(F)F)cc3C(=O)N3Cc4ccccc4C[C@H]3CN3CCOCC3)n(C)c2C)c2ccc(C#N)cc2)c1C` [Compound 44, N-(4-cyanophenyl)-5-[4-(difluoromethoxy)-5-fluoro-2-[(3S)-3-(morpholinomethyl)-3,4-dihydro-1H-isoquinoline-2-carbonyl]phenyl]-N-[(3-methoxy-2-methyl-phenyl)methyl]-1,2-dimethyl-pyrrole-3-carboxamide], the IC50 in series [1] was over 50 nM; in series [2] it was 2000 to 5000 nM.

Consider `COc1cccc(CN(C(=O)c2cc(-c3c(C)cc(Cl)cc3C(=O)N3Cc4ccccc4C[C@H]3CN3CCOCC3)n(C)c2C)c2ccc(O)cc2)c1C` [Compound 50, 5-[4-chloro-2-methyl-6-[(3S)-3-(morpholinomethyl)-3,4-dihydro-1H-isoquinoline-2-carbonyl]phenyl]-N-(4-hydroxyphenyl)-N-[(3-methoxy-2-methyl-phenyl)methyl]-1,2-dimethyl-pyrrole-3-carboxamide], for which the values for the IC50 in series [1] and in series [2] were over 50 nM and 2000 to 5000 nM, respectively.

For `COc1cc(-c2cc(C(=O)N(Cc3ccccc3C#N)c3ccc(Cl)cc3)c(C)n2C)c(C(=O)N2Cc3ccccc3C[C@H]2CN2CCOCC2)cc1C#N` [Compound 59, N-(4-chlorophenyl)-5-[4-cyano-5-methoxy-2-[(3S)-3-(morpholinomethyl)-3,4-dihydro-1H-isoquinoline-2-carbonyl]phenyl]-N-[(2-cyanophenyl)methyl]-1,2-dimethyl-pyrrole-3-carboxamide], the IC50 in series [1] was over 50 nM; in series [2], 2000 to 5000 nM.

For the compound `COc1cc(-c2cc(C(=O)N(Cc3cccc(OC)c3C)c3ccc(Cl)cc3)c(C)n2C)c(C(=O)N2Cc3ccccc3C[C@H]2CN2CCOCC2)cc1C#N` [Compound 60, N-(4-chlorophenyl)-5-[4-cyano-5-methoxy-2-[(3S)-3-(morpholinomethyl)-3,4-dihydro-1H-isoquinoline-2-carbonyl]phenyl]-N-[(3-methoxy-2-methyl-phenyl)methyl]-1,2-dimethyl-pyrrole-3-carboxamide], the figures for the half-inhibitory concentration (IC50) in series [1] and in series [2] were over 50 nM and 2000 to 5000 nM, respectively.

Take `COc1ccccc1CN(C(=O)c1cc(-c2cc(OC)c(C(N)=O)cc2C(=O)N2Cc3ccccc3C[C@H]2CN2CCOCC2)n(C)c1C)c1ccc(Cl)cc1` [Compound 63, 5-[4-carbamoyl-5-methoxy-2-[(3S)-3-(morpholinomethyl)-3,4-dihydro-1H-isoquinoline-2-carbonyl]phenyl]-N-(4-chlorophenyl)-N-[(2-methoxyphenyl)methyl]-1,2-dimethyl-pyrrole-3-carboxamide]: the IC50 in series [1] was 10 to 50 nM. The CC50 in series [3] was 100 to 200 nM; in series [5], at most 5000 nM. The compound further had a CC50 at 3 days in series [4] of 10000 to 25000 nM. For the same compound, the EC50 in series [6] is over 500 nM.

Turning to `Cc1c(C(=O)N(Cc2ccccc2C#N)c2ccc3cn[nH]c3c2)cc(-c2cc([N+](=O)[O-])ccc2C(=O)N2Cc3ccccc3C[C@H]2CN2CCOCC2)n1C` [Compound 66, N-[(2-cyanophenyl)methyl]-N-(1H-indazol-6-yl)-1,2-dimethyl-5-[2-[(3S)-3-(morpholinomethyl)-3,4-dihydro-1H-isoquinoline-2-carbonyl]-5-nitro-phenyl]pyrrole-3-carboxamide], the half-maximal inhibitory concentration (IC50) in series [1] is over 50 nM; in series [2], over 5000 nM.

Consider `COc1cccc(CN(C(=O)c2cc(-c3cc([N+](=O)[O-])ccc3C(=O)N3Cc4ccccc4C[C@H]3CN3CCOCC3)n(C)c2C)c2ccc3cn[nH]c3c2)c1C` [Compound 67, N-(1H-indazol-6-yl)-N-[(3-methoxy-2-methyl-phenyl)methyl]-1,2-dimethyl-5-[2-[(3S)-3-(morpholinomethyl)-3,4-dihydro-1H-isoquinoline-2-carbonyl]-5-nitro-phenyl]pyrrole-3-carboxamide], for which the IC50 in series [1] was over 50 nM; in series [2] it was over 5000 nM.

One may read the IC50 as the midpoint of a concentration-inhibition curve. In general, CC50 refers to the concentration giving 50% cytotoxicity. Lower therefore signals harm at low concentration.
